These results are taken from patent US9489013B2, “C6-azaspiro iminothiadiazine dioxides as bace inhibitors, compositions, and their use” (Merck Sharp & Dohme Corp., priority 2012, dated 2016).

Test [1] deals with soluble human BACE1 catalytic domain (Homo sapiens (Human), UniProt P56817). The test is described as follows: BACE1 HTRF FRET Assay. In kind it is biochemical. The following applies: Ki calculated from IC50 using the Cheng-Prusoff equation; QSY7-APPswe-Eu substrate, pH 5.0. The procedure: A homogeneous time-resolved FRET assay can be used to determine IC50 values for inhibitors of the soluble human BACE1 catalytic domain. […] This substrate contains an N-terminal QSY7 moiety that serves as a quencher of the C-terminal Europium fluorophore (620 nm Em). […] Inhibition of BACE cleavage of the QSY7-APP^swe-Eu substrate by inhibitors is manifested as a suppression of 620 nm fluorescence. […] The reactions are incubated at 30° C. for 1.5 hours. The 620 nm fluorescence is then read on a Rubystar HTRF plate reader (BMG Labtechnologies) using a 50 millisecond delay followed by a 400 millisecond acquisition time window. Inhibitor IC50 values are derived from non-linear regression analysis of concentration response curves.
soluble human BACE1 catalytic domain, sequence (P56817 75-416): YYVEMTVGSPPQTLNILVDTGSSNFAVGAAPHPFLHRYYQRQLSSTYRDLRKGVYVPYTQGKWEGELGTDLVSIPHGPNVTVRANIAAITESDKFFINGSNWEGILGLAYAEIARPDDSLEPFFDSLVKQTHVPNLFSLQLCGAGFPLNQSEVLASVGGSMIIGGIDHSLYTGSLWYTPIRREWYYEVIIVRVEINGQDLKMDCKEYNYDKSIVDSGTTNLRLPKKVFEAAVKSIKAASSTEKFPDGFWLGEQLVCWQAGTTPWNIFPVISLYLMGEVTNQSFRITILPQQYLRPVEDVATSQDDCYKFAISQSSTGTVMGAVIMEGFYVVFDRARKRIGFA

In test [2] the target is purified human autoBACE-2 (Homo sapiens (Human), UniProt Q9Y5Z0). As to the kind of experiment: BACE-2 Assay (BACE-HTRF assay). In kind it is biochemical. The note with it: Ki calculated from IC50 using the Cheng-Prusoff equation, pH 5.0, read-out: BACE2 Ki. How it is done: Inhibitor IC50's at purified human autoBACE-2 are determined in a time-resolved endpoint proteolysis assay that measures hydrolysis of the QSY7-[…]-Eu-amide FRET peptide substrate (BACE-HTRF assay). […] Inhibitor compounds, prepared at 3× the desired final concentration in 1×BACE assay buffer (20 mM sodium acetate pH 5.0, 10% glycerol, 0.1% Brij-35) supplemented with 7.5% DMSO are pre-incubated with an equal volume of autoBACE-2 enzyme diluted in 1×BACE assay buffer (final enzyme concentration 1 nM) in black 384-well NUNC plates for 30 minutes at 30° C. […] DMSO is present at 5% final concentration in the assay. Following laser excitation of sample wells at 320 nm, the fluorescence signal at 620 nm is collected for 400 ms following a 50 μs delay on a RUBYstar HTRF plate reader (BMG Labtechnologies). Raw RFU data is normalized to maximum (1.0 nM BACE/DMSO) and minimum (no enzyme/DMSO) RFU values. […] The Ki values are calculated from the IC50 using the Cheng-Prusoff equation.
purified human autoBACE-2, sequence (Q9Y5Z0 63-473 limits assumed): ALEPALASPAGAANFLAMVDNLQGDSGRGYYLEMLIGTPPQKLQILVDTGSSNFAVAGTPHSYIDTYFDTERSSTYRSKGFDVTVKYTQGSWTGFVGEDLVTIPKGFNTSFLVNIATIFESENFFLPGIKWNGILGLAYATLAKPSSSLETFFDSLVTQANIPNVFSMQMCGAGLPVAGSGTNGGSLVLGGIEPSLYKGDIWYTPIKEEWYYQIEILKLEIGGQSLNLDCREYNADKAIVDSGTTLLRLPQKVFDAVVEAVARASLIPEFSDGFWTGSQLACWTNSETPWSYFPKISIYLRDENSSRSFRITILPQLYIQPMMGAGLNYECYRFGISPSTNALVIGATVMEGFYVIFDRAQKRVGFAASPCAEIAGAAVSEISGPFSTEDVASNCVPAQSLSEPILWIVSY

Where [3] appears, read: QSY7-EISEVNLDAEFC-Eu-amide substrate.

Where two headings read alike, the source gives them in different places.

As for `COc1ccc(C(=O)Nc2ccc(F)c([C@@]3(C)NC(=N)N(C)S(=O)(=O)[C@@]34CCN(Cc3cnco3)C4)c2)nc1` [Example 14], the Ki in test [1] was 3 nM; in test [2] (setting [3]), 9 nM.

On to `COc1ccc(C(=O)Nc2ccc(F)c([C@@]3(C)NC(=N)N(C)S(=O)(=O)[C@@]34CCN(Cc3cncnc3)C4)c2)nc1` [Example 15], for which the values for the Ki in test [1] and in test [2] (setting [3]) were 4 nM and 17 nM, respectively.

In the case of `CN1C(=N)N[C@](C)(c2cc(NC(=O)c3ccc(F)cn3)ccc2F)[C@]2(CCN(Cc3cnn(C)c3)C2)S1(=O)=O` [Example 40], the Ki in test [1] is 4 nM; in test [2] (setting [3]), 10 nM.

On to `CN1C(=N)N[C@](C)(c2cc(NC(=O)c3ccc(F)cn3)ccc2F)[C@]2(CCN(Cc3cnco3)C2)S1(=O)=O` [Example 30], for which the Ki in test [1] was 4 nM; in test [2] (setting [3]), 5 nM.

With `CN1C(=N)N[C@](C)(c2cc(NC(=O)c3ccc(F)cn3)ccc2F)[C@]2(CCN(Cc3ccncc3)C2)S1(=O)=O` [Example 29], the Ki in test [1] is 8 nM; in test [2] (setting [3]), 9 nM.

For `COC1CC(CN2CC[C@@]3(C2)[C@@](C)(c2cc(NC(=O)c4ccc(F)cn4)ccc2F)NC(=N)N(C)S3(=O)=O)C1` (stereo partly shown) [Example 34], the Ki in test [1] is 6 nM; in test [2] (setting [3]), 10 nM.

As for `COc1ccc(C(=O)Nc2ccc(F)c([C@@]3(C)NC(=N)N(C)S(=O)(=O)[C@@]34CCN(Cc3cnn(C)c3)C4)c2)nc1` [Example 16], the Ki in test [1] is 4 nM.

`CN1C(=N)N[C@](C)(c2cc(NC(=O)c3ccc(F)cn3)ccc2F)[C@@]2(CCN(S(=O)(=O)c3ccccc3)C2)S1(=O)=O` [Example 91]: the values for the inhibition constant Ki in test [1] and in test [2] (setting [3]) were 16 nM and 6 nM, respectively.

Regarding `COc1ccc(C(=O)Nc2ccc(F)c([C@@]3(C)NC(=N)N(C)S(=O)(=O)[C@@]34CCN(Cc3cccnc3)C4)c2)nc1` [Example 11], the Ki is 2 nM in test [1] and 12 nM in test [2] (setting [3]).

In the case of `COc1ccc(C(=O)Nc2ccc(F)c([C@@]3(C)NC(=N)N(C)S(=O)(=O)[C@@]34CCN(CC3CC3)C4)c2)nc1` [Example 12], the Ki is 2 nM in test [1] and 7 nM in test [2] (setting [3]).

Turning to `CN1C(=N)N[C@](C)(c2cc(NC(=O)c3ccc(F)cn3)ccc2F)[C@]2(CCN(Cc3cccnc3)C2)S1(=O)=O` [Example 35], the Ki was 2 nM in test [1] and 6 nM in test [2] (setting [3]).

As for `CN1C(=N)N[C@](C)(c2cc(NC(=O)c3ccc(F)cn3)ccc2F)[C@]2(CCN(CC3CC3)C2)S1(=O)=O` [Example 31], the inhibitory constant (Ki) in test [1] was 2 nM; in test [2] (setting [3]), 5 nM.

Regarding `CN1C(=N)N[C@](C)(c2cc(NC(=O)c3ccc(F)cn3)ccc2F)[C@]2(CCN(S(=O)(=O)CC3CCCO3)C2)S1(=O)=O` (stereo partly shown) [Example 82], the inhibitory constant (Ki) in test [1] was 4 nM; in test [2] (setting [3]) it was 10 nM.

Take `COCC(=O)Nc1ccc(F)c([C@@]2(C)NC(=N)N(C)S(=O)(=O)[C@@]23CCN(Cc2ccccc2)C3)c1` [Example 96]: the Ki in test [1] is 22 nM; in test [2] (QSY7-[…]-Eu-amide substrate), 25 nM.

For `COc1ccc(C(=O)Nc2ccc(F)c([C@@]3(C)NC(=N)N(C)S(=O)(=O)[C@@]34CCN(Cc3cscn3)C4)c2)nc1` [Example 8], the Ki in test [1] was 3 nM.

On to `CN1C(=N)N[C@](C)(c2cc(NC(=O)c3ccc(F)cn3)ccc2F)[C@]2(CCN(Cc3cocn3)C2)S1(=O)=O` [Example 37], for which the Ki in test [1] was 2 nM; in test [2] (setting [3]), 5 nM.

For `COc1ccc(C(=O)Nc2ccc(F)c([C@@]3(C)NC(=N)N(C)S(=O)(=O)[C@@]34CCN(Cc3ccccn3)C4)c2)nc1` [Example 10], in test [1], the Ki is 2 nM.

As for `COc1ccc(C(=O)Nc2ccc(F)c([C@@]3(C)NC(=N)N(C)S(=O)(=O)[C@@]34CCN(CC3CC(OC)C3)C4)c2)nc1` (stereo partly shown) [Example 17], in test [1], the Ki was 4 nM.

Regarding `CCCCN1CC[C@@]2(C1)[C@@](C)(c1cc(NC(=O)c3ccc(F)cn3)ccc1F)NC(=N)N(C)S2(=O)=O` [Example 39], the values for the Ki in test [1] and in test [2] (setting [3]) were 2 nM and 3 nM, respectively.

Consider `CN1C(=N)N[C@](C)(c2cc(NC(=O)c3ccc(F)cn3)ccc2F)[C@]2(CCN(Cc3cscn3)C2)S1(=O)=O` [Example 33], for which the inhibitory constant (Ki) in test [1] is 3 nM; in test [2] (setting [3]) it was 5 nM.

Take `COc1ccc(C(=O)Nc2ccc(F)c([C@@]3(C)NC(=N)N(C)S(=O)(=O)[C@@]34CCN(CC3CCOC3)C4)c2)nc1` (stereo partly shown) [Example 9]: the figures for the Ki in test [1] and in test [2] (setting [3]) were 1 nM and 2 nM, respectively.

For the compound `CN1C(=N)N[C@](C)(c2cc(NC(=O)c3ccc(F)cn3)ccc2F)[C@]2(CCN(Cc3cncnc3)C2)S1(=O)=O` [Example 38], the Ki in test [1] was 4 nM; in test [2] (setting [3]), 7 nM.
